Experimental data from patent publication US10800791B2, “Triazole ACC inhibitors and uses thereof” (Gilead Apollo, LLC, priority 2015, dated 2020).
In brackets after ≈: the same amount, converted by molar mass. Like-named read-outs stand apart in the source and are kept apart here.

Experiments:
human (hACC2) = human (hACC2) (Homo sapiens, UniProt O00763); experiment: In vitro ACC inhibition assay (ADP-Glo), hACC2; type: biochemical; conditions: 5 nM ACC2, 20 μM ATP, 20 μM acetyl-CoA
Procedure: The detailed procedure is as follows. […] 10 μL ADP glo reagent was added. […] 20 μL kinase detection reagent was added.

C. krusei = experiment: Antifungal Activity Assay (broth microtiter MIC), C. krusei; type: cell-based, Candida krusei; conditions: 3 replicates, MIC recorded at 48 h; for MIC: Pichia kudriavzevii, ATCC6258, 48 h, ATCC 6258, read-out: MIC, C. krusei ATCC 6258
Procedure: (§1) Compounds of the present invention were evaluated in an Antifungal Activity Assay. An exemplary procedure for the assay, which measures the susceptibility of various Candida species to antifungal compounds, follows. Compounds to be tested (including fluconazole and amphotericin B) were dissolved in DMSO to obtain a solution having a concentration of 1 mg/mL. These stock solutions were sterile filtered using a 0.22 um nylon syringe filter, then diluted in sterile water to achieve a final concentration of 128 μg/mL.
(§2) All species were grown from frozen stock by directly plating on to freshly prepared Sabouraud Dextrose agar (BD, Difco) and incubated overnight in ambient air at 35° C. for 24 h. A direct suspension was prepared in RPMI 1640+MOPS (Lonza, Biowhittaker) by taking individual colonies from the overnight cultures using sterile swabs soaked in sterile saline. The concentration of the suspension was determined using pre-determined standard curves. These suspensions were then diluted down to 5×10^3 CFU/mL to achieve a final concentration of 2.5×10^3 CFU/mL once added to the microtiter plate as per CLSI guidelines (M27-A3, Vol. 28 No. 14).
(§3) Broth microtiter MIC challenge plates were prepared following CLSI guidelines (M27-A3, Vol. 28 No. 14). The original CLSI guidelines focused on reading Candida MICs after 48 h of incubation. As reading after only 24 h offers a clear advantage of patient care, QC limits are being established for all drugs at 24 h. That being said there are no known interpretive breakpoints for amphotericin B at 24 h and the current fluconazole interpretive breakpoints are based on a 48 h reading. The MICs for the test compounds were recorded at 48 h. All MIC determinations were achieved by visually comparing the growth found in the antibiotic challenged wells to that of the growth control.

C. albicans = experiment: Antifungal Activity Assay (broth microtiter MIC), C. albicans; type: cell-based, Candida albicans; conditions: 3 replicates, MIC recorded at 48 h; for MIC: Candida albicans, ATCC90028, 48 h, ATCC 90028, read-out: MIC, C. albicans ATCC 90028
Procedure: as §1, §2, §3

fungal (fACC2) = fungal (fACC2) (UniProt Q00955); conditions: read-out: fACC2 (in vitro ACC2 Inhibition Assay, IC50), ADP-Glo, 5 nM ACC2, 20 μM ATP, 20 μM acetyl-CoA
Sequence of fungal (fACC2) (Q00955 whole entry): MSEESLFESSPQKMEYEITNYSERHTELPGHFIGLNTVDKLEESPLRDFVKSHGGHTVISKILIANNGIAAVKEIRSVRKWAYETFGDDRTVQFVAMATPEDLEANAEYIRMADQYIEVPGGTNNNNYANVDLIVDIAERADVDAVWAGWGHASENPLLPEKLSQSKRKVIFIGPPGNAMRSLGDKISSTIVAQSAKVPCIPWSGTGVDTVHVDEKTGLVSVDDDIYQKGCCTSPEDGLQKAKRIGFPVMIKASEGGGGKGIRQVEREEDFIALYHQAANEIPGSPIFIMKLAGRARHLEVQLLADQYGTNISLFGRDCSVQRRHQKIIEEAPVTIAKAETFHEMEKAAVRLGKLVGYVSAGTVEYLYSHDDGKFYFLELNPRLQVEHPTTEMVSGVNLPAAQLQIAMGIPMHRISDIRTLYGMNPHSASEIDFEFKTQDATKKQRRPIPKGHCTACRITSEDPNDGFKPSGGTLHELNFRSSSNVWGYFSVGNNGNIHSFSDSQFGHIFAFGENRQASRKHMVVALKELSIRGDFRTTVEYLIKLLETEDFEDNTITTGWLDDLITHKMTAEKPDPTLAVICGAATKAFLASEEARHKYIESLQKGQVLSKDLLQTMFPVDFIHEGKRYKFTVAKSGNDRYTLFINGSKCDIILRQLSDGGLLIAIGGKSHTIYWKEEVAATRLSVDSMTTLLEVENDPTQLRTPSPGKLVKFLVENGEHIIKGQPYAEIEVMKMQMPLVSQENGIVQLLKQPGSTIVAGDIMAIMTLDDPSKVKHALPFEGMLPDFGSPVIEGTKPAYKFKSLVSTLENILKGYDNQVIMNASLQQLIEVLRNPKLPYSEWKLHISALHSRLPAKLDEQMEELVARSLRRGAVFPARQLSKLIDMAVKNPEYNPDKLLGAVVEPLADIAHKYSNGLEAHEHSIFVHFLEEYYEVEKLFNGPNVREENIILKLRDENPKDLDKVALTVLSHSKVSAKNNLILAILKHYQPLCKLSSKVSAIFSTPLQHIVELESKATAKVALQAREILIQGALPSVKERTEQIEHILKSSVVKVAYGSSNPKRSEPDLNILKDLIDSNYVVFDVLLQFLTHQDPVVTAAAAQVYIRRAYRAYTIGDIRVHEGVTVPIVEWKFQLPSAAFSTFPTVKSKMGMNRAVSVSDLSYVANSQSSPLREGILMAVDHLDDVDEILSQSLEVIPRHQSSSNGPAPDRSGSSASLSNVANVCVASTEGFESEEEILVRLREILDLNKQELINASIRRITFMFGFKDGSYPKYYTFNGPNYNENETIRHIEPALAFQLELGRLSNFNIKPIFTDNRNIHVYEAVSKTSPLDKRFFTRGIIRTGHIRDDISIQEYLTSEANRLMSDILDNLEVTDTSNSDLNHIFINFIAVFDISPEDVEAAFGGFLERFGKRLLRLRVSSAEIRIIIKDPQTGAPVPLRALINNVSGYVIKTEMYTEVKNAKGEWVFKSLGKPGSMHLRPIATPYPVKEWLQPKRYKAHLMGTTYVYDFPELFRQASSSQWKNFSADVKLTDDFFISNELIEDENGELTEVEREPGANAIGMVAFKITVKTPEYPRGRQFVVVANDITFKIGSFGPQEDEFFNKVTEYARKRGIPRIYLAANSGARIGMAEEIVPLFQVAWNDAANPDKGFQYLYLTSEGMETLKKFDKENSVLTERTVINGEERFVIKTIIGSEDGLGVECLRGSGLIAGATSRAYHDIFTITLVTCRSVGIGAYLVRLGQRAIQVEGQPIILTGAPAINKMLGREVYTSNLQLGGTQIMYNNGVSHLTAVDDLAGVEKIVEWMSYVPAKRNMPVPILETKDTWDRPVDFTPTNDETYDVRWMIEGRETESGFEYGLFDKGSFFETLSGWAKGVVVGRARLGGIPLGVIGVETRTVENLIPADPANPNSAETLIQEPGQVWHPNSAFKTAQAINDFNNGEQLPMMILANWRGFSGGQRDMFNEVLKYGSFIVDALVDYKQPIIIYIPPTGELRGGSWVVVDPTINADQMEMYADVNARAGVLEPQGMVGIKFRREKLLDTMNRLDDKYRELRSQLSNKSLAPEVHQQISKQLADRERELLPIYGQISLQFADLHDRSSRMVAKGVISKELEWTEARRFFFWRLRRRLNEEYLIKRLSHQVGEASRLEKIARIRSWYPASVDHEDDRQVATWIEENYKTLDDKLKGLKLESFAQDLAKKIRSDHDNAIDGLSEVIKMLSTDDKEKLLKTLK

C. parapsilosis = experiment: Antifungal Activity Assay (broth microtiter MIC), C. parapsilosis; type: cell-based, Candida parapsilosis; conditions: 3 replicates, MIC recorded at 48 h; for MIC: Lodderomyces parapsilosis, ATCC22019, 48 h, ATCC 22019, read-out: MIC, C. parapsilosis ATCC 22019
Procedure: as §1, §2, §3

Sequence of human (hACC2) (O00763 whole entry): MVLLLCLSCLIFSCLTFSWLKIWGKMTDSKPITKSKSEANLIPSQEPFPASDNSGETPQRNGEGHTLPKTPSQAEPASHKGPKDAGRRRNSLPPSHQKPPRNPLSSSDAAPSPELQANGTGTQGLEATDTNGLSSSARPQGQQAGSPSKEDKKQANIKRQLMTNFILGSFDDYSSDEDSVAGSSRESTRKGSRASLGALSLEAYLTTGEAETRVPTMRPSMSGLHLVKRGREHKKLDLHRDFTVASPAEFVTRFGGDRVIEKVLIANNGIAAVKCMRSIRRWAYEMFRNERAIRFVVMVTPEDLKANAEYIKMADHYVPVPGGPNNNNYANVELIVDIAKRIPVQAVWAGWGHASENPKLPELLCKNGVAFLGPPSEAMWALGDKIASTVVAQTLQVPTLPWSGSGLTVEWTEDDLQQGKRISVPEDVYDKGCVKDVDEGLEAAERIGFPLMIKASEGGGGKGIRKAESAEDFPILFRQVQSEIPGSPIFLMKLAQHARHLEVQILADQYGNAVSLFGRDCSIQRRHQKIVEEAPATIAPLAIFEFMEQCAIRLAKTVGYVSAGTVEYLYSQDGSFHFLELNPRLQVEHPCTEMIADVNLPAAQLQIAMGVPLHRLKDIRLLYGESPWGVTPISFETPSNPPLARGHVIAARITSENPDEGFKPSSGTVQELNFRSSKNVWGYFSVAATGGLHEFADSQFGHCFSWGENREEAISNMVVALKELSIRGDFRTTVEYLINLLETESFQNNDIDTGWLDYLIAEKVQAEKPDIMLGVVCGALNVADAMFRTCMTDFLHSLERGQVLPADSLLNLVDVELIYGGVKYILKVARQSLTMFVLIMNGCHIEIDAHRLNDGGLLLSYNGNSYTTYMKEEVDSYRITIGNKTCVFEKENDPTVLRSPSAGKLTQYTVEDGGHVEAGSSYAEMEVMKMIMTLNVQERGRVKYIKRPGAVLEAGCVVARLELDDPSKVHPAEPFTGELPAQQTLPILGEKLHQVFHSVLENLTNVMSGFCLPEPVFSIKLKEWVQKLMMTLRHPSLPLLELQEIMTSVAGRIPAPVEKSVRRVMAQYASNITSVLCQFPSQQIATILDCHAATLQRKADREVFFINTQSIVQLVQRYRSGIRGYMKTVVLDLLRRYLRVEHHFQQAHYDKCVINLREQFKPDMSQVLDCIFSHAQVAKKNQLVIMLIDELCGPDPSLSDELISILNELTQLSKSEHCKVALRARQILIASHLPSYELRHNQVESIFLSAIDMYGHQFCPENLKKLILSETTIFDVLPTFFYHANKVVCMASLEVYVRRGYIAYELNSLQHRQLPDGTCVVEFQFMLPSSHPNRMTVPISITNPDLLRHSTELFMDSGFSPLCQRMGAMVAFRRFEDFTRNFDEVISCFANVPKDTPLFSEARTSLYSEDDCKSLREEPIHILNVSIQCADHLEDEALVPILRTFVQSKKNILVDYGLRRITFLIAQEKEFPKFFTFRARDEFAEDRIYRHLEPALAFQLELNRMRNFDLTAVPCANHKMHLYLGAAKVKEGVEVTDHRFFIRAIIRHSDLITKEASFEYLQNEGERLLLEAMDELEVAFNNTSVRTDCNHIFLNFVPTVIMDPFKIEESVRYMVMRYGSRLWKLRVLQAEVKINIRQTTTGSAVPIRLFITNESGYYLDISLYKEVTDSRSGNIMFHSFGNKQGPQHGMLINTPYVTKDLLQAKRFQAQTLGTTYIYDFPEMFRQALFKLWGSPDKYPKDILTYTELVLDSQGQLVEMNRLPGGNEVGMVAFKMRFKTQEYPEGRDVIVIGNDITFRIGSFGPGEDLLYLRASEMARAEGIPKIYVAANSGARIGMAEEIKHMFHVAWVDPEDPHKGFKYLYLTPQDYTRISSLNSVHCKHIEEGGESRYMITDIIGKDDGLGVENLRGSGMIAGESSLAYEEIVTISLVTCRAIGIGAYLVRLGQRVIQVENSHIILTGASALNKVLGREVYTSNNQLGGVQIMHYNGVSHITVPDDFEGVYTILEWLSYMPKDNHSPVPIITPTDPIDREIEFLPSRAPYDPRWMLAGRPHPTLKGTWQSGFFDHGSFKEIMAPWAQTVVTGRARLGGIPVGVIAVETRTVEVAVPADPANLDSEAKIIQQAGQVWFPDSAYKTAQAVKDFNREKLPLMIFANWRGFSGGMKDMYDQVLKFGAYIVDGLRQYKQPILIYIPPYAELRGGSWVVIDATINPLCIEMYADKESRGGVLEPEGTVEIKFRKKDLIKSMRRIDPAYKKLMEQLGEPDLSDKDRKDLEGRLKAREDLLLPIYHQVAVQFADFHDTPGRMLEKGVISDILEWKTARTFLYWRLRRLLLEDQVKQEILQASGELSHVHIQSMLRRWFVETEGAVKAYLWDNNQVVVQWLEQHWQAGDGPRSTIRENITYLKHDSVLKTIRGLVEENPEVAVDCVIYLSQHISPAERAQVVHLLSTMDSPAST

COCCO[C@@H](Cn1c(=O)n(C(C)(C)C(=O)NC2CCC2)c(=O)c2c(C)c(-n3nccn3)sc21)c1cc(F)ccc1OC [Compound I-102]
IC50 (human (hACC2); Table 2a): 1 to 5 nM
IC50 (human (hACC2); Table 2b, additional results): 1 to 5 nM
MIC, C. krusei ATCC 6258 (C. krusei; Table 3a): A (MIC of 0.25-1.0 μg/mL)
MIC, C. krusei ATCC 6258 (C. krusei; Table 3b (additional results)): A (MIC of 0.25-1.0 μg/mL)
MIC, C. albicans ATCC 90028 (C. albicans; Table 3a): A (MIC of 0.25-1.0 μg/mL)
MIC, C. albicans ATCC 90028 (C. albicans; Table 3b (additional results)): C (MIC of 2.01-4.0 μg/mL)
IC50 (fungal (fACC2); Table 2a): 1 to 5 nM
IC50 (fungal (fACC2); Table 2b, additional results): 1 to 5 nM
MIC, C. parapsilosis ATCC 22019 (C. parapsilosis; Table 3a): A (MIC of 0.25-1.0 μg/mL)
MIC, C. parapsilosis ATCC 22019 (C. parapsilosis; Table 3b (additional results)): A (MIC of 0.25-1.0 μg/mL)

COCCO[C@@H](Cn1c(=O)n(C(C)(C)C(=O)NC2CCCCC2)c(=O)c2c(C)c(-n3nccn3)sc21)c1cc(F)ccc1OC [Compound I-103]
IC50 (human (hACC2); Table 2a): 10 to 40 nM
IC50 (human (hACC2); Table 2b, additional results): 10 to 40 nM
MIC (C. krusei; Table 3a): 0.25 to 1 µg/mL (≈ 0.389 to 1.56 µM)
MIC (C. krusei; Table 3b (additional results)): 0.25 to 1 µg/mL (≈ 0.389 to 1.56 µM)
MIC (C. albicans; Table 3a): 1.1 to 2 µg/mL (≈ 1.71 to 3.11 µM)
MIC (C. albicans; Table 3b (additional results)): 1.01 to 2 µg/mL (≈ 1.57 to 3.11 µM)
IC50 (fungal (fACC2); Table 2a): 1 to 5 nM
IC50 (fungal (fACC2); Table 2b, additional results): 1 to 5 nM
MIC (C. parapsilosis; Table 3a): 0.25 to 1 µg/mL (≈ 0.389 to 1.56 µM)
MIC (C. parapsilosis; Table 3b (additional results)): 0.25 to 1 µg/mL (≈ 0.389 to 1.56 µM)

COc1ccc(F)cc1[C@H](Cn1c(=O)n(C(C)(C)C(=O)NC(C)C)c(=O)c2c(C)c(-n3nccn3)sc21)OCCC(C)=O [Compound I-104]
IC50 (human (hACC2); Table 2a): 1 to 5 nM
IC50 (human (hACC2); Table 2b, additional results): 1 to 5 nM
MIC (C. krusei; Table 3a): 0.06 to 0.24 µg/mL (≈ 0.0976 to 0.39 µM)
MIC (C. krusei; Table 3b (additional results)): 0.25 to 1 µg/mL (≈ 0.407 to 1.63 µM)
MIC (C. albicans; Table 3a): 0.25 to 1 µg/mL (≈ 0.407 to 1.63 µM)
MIC (C. albicans; Table 3b (additional results)): 0.25 to 1 µg/mL (≈ 0.407 to 1.63 µM)
IC50 (fungal (fACC2); Table 2a): 1 to 5 nM
IC50 (fungal (fACC2); Table 2b, additional results): 1 to 5 nM
MIC (C. parapsilosis; Table 3a): 0.25 to 1 µg/mL (≈ 0.407 to 1.63 µM)
MIC (C. parapsilosis; Table 3b (additional results)): 0.25 to 1 µg/mL (≈ 0.407 to 1.63 µM)

COc1ccc(F)cc1[C@H](Cn1c(=O)n(C(C)(C)C(=O)NC2CCC2)c(=O)c2c(C)c(-n3nccn3)sc21)OCCC(C)=O [Compound I-105]
IC50 (human (hACC2); Table 2a): 1 to 5 nM
IC50 (human (hACC2); Table 2b, additional results): 1 to 5 nM
MIC (C. krusei; Table 3a): 0.06 to 0.24 µg/mL (≈ 0.0957 to 0.383 µM)
MIC (C. krusei; Table 3b (additional results)): 0.25 to 1 µg/mL (≈ 0.399 to 1.6 µM)
MIC (C. albicans; Table 3a): 0.25 to 1 µg/mL (≈ 0.399 to 1.6 µM)
MIC (C. albicans; Table 3b (additional results)): 1.01 to 2 µg/mL (≈ 1.61 to 3.19 µM)
IC50 (fungal (fACC2); Table 2a): 0.4 to 1 nM
IC50 (fungal (fACC2); Table 2b, additional results): 0.3 to 1 nM
MIC (C. parapsilosis; Table 3a): 0.25 to 1 µg/mL (≈ 0.399 to 1.6 µM)
MIC (C. parapsilosis; Table 3b (additional results)): 0.25 to 1 µg/mL (≈ 0.399 to 1.6 µM)

COc1ccc(F)cc1[C@H](Cn1c(=O)n(C(C)(C)C(=O)NC2CCCCC2)c(=O)c2c(C)c(-n3nccn3)sc21)OCCC(C)=O [Compound I-106]
IC50 (human (hACC2); Table 2a): 5 to 10 nM
IC50 (human (hACC2); Table 2b, additional results): 5 to 10 nM
MIC (C. krusei; Table 3a): 0.25 to 1 µg/mL (≈ 0.382 to 1.53 µM)
MIC (C. krusei; Table 3b (additional results)): 0.25 to 1 µg/mL (≈ 0.382 to 1.53 µM)
MIC (C. albicans; Table 3a): 1.1 to 2 µg/mL (≈ 1.68 to 3.05 µM)
MIC (C. albicans; Table 3b (additional results)): 1.01 to 2 µg/mL (≈ 1.54 to 3.05 µM)
IC50 (fungal (fACC2); Table 2a): 1 to 5 nM
IC50 (fungal (fACC2); Table 2b, additional results): 1 to 5 nM
MIC (C. parapsilosis; Table 3a): 0.25 to 1 µg/mL (≈ 0.382 to 1.53 µM)
MIC (C. parapsilosis; Table 3b (additional results)): 0.25 to 1 µg/mL (≈ 0.382 to 1.53 µM)

Cc1c(-n2nccn2)sc2c1c(=O)n(C(C)(C)C(=O)NC(C)C)c(=O)n2C[C@H](OC1CCOCC1)c1cc(F)ccc1OCc1ccccc1 [Compound I-107]
IC50 (human (hACC2); Table 2a): 5 to 10 nM
IC50 (human (hACC2); Table 2b, additional results): 5 to 10 nM
MIC (C. krusei; Table 3a): 0.25 to 1 µg/mL (≈ 0.355 to 1.42 µM)
MIC (C. krusei; Table 3b (additional results)): 0.25 to 1 µg/mL (≈ 0.355 to 1.42 µM)
MIC (C. albicans; Table 3a): 0.25 to 1 µg/mL (≈ 0.355 to 1.42 µM)
MIC (C. albicans; Table 3b (additional results)): 0.25 to 1 µg/mL (≈ 0.355 to 1.42 µM)
IC50 (fungal (fACC2); Table 2a): 1 to 5 nM
IC50 (fungal (fACC2); Table 2b, additional results): 1 to 5 nM
MIC (C. parapsilosis; Table 3a): 1.1 to 2 µg/mL (≈ 1.56 to 2.84 µM)
MIC (C. parapsilosis; Table 3b (additional results)): 0.25 to 1 µg/mL (≈ 0.355 to 1.42 µM)

Cc1c(-n2nccn2)sc2c1c(=O)n(C(C)(C)C(=O)NC(C)C)c(=O)n2C[C@H](OC1CCOCC1)c1cc(F)ccc1OCC1COC1 [Compound I-108]
IC50 (human (hACC2); Table 2a): 1 to 5 nM
IC50 (human (hACC2); Table 2b, additional results): 1 to 5 nM
MIC (C. krusei; Table 3a): 0.25 to 1 µg/mL (≈ 0.365 to 1.46 µM)
MIC (C. krusei; Table 3b (additional results)): 0.25 to 1 µg/mL (≈ 0.365 to 1.46 µM)
MIC (C. albicans; Table 3a): 0.25 to 1 µg/mL (≈ 0.365 to 1.46 µM)
MIC (C. albicans; Table 3b (additional results)): 0.25 to 1 µg/mL (≈ 0.365 to 1.46 µM)
IC50 (fungal (fACC2); Table 2a): 1 to 5 nM
IC50 (fungal (fACC2); Table 2b, additional results): 1 to 5 nM
MIC (C. parapsilosis; Table 3a): 0.25 to 1 µg/mL (≈ 0.365 to 1.46 µM)
MIC (C. parapsilosis; Table 3b (additional results)): 0.25 to 1 µg/mL (≈ 0.365 to 1.46 µM)

COCCOc1ccc(F)cc1[C@H](Cn1c(=O)n(C(C)(C)C(=O)N2CCCC2)c(=O)c2c(C)c(-n3nccn3)sc21)OC1CCOCC1 [Compound I-109]
IC50 (human (hACC2); Table 2a): 1 to 5 nM
IC50 (human (hACC2); Table 2b, additional results): 1 to 5 nM
MIC (C. krusei; Table 3a): 0.25 to 1 µg/mL (≈ 0.365 to 1.46 µM)
MIC (C. krusei; Table 3b (additional results)): 1.01 to 2 µg/mL (≈ 1.47 to 2.92 µM)
MIC (C. albicans; Table 3a): 0.25 to 1 µg/mL (≈ 0.365 to 1.46 µM)
MIC (C. albicans; Table 3b (additional results)): 0.25 to 1 µg/mL (≈ 0.365 to 1.46 µM)
IC50 (fungal (fACC2); Table 2a): 1 to 5 nM
IC50 (fungal (fACC2); Table 2b, additional results): 1 to 5 nM
MIC (C. parapsilosis; Table 3a): 0.25 to 1 µg/mL (≈ 0.365 to 1.46 µM)
MIC (C. parapsilosis; Table 3b (additional results)): 1.01 to 2 µg/mL (≈ 1.47 to 2.92 µM)

Cc1c(-n2nccn2)sc2c1c(=O)n(C(C)(C)C(=O)N1CCCC1)c(=O)n2C[C@H](OC1CCOCC1)c1cc(F)ccc1OCC1COC1 [Compound I-110]
IC50 (human (hACC2); Table 2a): 5 to 10 nM
IC50 (human (hACC2); Table 2b, additional results): 5 to 10 nM
MIC (C. krusei; Table 3a): 0.25 to 1 µg/mL (≈ 0.359 to 1.44 µM)
MIC (C. krusei; Table 3b (additional results)): 1.01 to 2 µg/mL (≈ 1.45 to 2.87 µM)
MIC (C. albicans; Table 3a): 0.25 to 1 µg/mL (≈ 0.359 to 1.44 µM)
MIC (C. albicans; Table 3b (additional results)): 0.25 to 1 µg/mL (≈ 0.359 to 1.44 µM)
IC50 (fungal (fACC2); Table 2a): 1 to 5 nM
IC50 (fungal (fACC2); Table 2b, additional results): 1 to 5 nM
MIC (C. parapsilosis; Table 3a): 0.25 to 1 µg/mL (≈ 0.359 to 1.44 µM)
MIC (C. parapsilosis; Table 3b (additional results)): 1.01 to 2 µg/mL (≈ 1.45 to 2.87 µM)
